Several values for one entry are separate records, joined by “and”; a condition that tells them apart may be missing. Equal values may be shown once.
Key:
[1] = Polymerization stability in aqueous media by LCMS/MS quantification of hydrolyzed trisiloxy species; type: physicochemical
[2] = Clarity and dissolution of the solid product in water; type: physicochemical
Description: A 500 mL round bottom reaction vessel was outfitted with an oil bath, stir bar, distillation head and condenser, receiving flask, oil bubbler, gas inlet that allows argon to pass through vessel and distillation setup, an immersion thermoprobe for the oil bath, and a thermoprobe for the head. The reactor is charged with 47.6 mL of a 42% methanolic solution of dimethyloctadecyl[3-(trimethoxysilyl)propyl]ammonium chloride (Aldrich), 200 mL DMF, 27.7 g (3 equiv.) of N-Tris(hydroxymethyl)methyl-2-aminoethanesulfonic acid (TES) and 8.7 mL of 25% MeONa in MeOH. The mixture is heated to 125 degrees C. (oil temp) and the methanol is collected by distillation. As the reaction is heated a homogenous solution is formed. As the methanol is distilled off a white precipitate begins to form. The reaction is heated until the head temp drops and no more MeOH is evolved (about 1.5 hours). The reaction is then cooled to room temperature and the precipitate (NaCl) is removed by filtration through a glass fiber filter and the DMF was concentrated to about 100 mL total volume at reduced pressure. The solution is cooled to rt. A 1 L flask under argon and a stir bar is charged with anhydrous acetonitrile (1000 mL) and cooled to ˜10 C. The DMF solution is added slowly to rapidly stirring acetonitrile to form a white suspension. Stirring is continued for 30 minutes. […]

| SMILES | 2022 Concentration of Compound 1 hydrolysis product, average ([1]; average of three measurements after storage under ambient conditions for multiple years) | 2019 Concentration of Compound 1 hydrolysis product, average ([1]; average of three measurements, reference value immediately after preparation) | stability to polymerization in aqueous media ([1]; over prolonged periods of time) | 2022 Concentration of Compound 1 hydrolysis product ([1]; single measurements after storage under ambient conditions for multiple years, expected 60 μg/mL, expressed as Compound 1 equivalent) | 2019 Concentration of Compound 1 hydrolysis product ([1]; single measurements immediately after preparation, Compound 1 diluted in water to expected 60 μg/mL, expressed as Compound 1 equivalent) | time a solution in water remains clear ([2]; 1% solution in water) [months] | dissolution of the powder in water ([2]; fine powder, water, gentle heating) |
| --- | --- | --- | --- | --- | --- | --- | --- |
| CCCCCCCCCCCCCCCCCC[N+](C)(C)CCC[Si](O)(O)O [Compound 1 hydrolysis product] | Average: 58.3 μg/mL | Average: 62.6 μg/mL | excellent stability to polymerization | 59.2 µg/mL and 54.8 µg/mL and 60.9 µg/mL | 69.1 µg/mL and 54.3 µg/mL and 64.4 µg/mL | – | – |
| CCCCCCCCCCCCCCCCCC[N+](C)(C)CCC[Si](OCC(CO)(CO)NCCS(=O)(=O)[O-])(OCC(CO)(CO)NCCS(=O)(=O)O)OCC(CO)(CO)NCCS(=O)(=O)O [Example 1, 2-[[1-[[3-[dimethyl(octadecyl)ammonio]propyl-[3-hydroxy-2-(hydroxymethyl)-2-(2-sulfoethylamino)propoxy]-[3-hydroxy-2-(hydroxymethyl)-2-(2-sulfoethylamino)propoxy]silyl]oxymethyl]-2-hydroxy-1-(hydroxymethyl)ethyl]amino]-ethanesulfonate] | – | – | – | – | – | > 5 | dissolves quickly in water with gentle heating |

— patent publication US20260091049A1, “HALIDE-FREE AMMONIUM SILANES” (TOPIKOS SCIENTIFIC, INC., priority 2022, published 2026)
